The values below come from patent US5298495A, “Partricin derivatives” (SPA Societa' Prodotti Antibiotici SpA, priority 1990, dated 1994).

For one data set, the system named is rat erytrocytes. Put plainly: Hemolytic activity on rat erythrocytes. The format is cell-based. From the text: (§1) MIC (ng/ml) Hemolytic con.(mcg/ml)
(§2) C. albicans 73 rat erytrocytes, […]

A short description of data set [1]: Acute toxicity in mice (DL50). The format is in vivo. The following applies: mouse, in vivo.
The subject of another data set is C. albicans 73. The experiment in a line: Microbiological activity on C. albicans (MIC). The format is cell-based. The following applies: Candida albicans, 73, Fluid Sab. Med, 36° C.
From the text: as §1, §2

Where [2] appears, read: 24 h, read-out: MIC C. albicans 73, 24 h.
Where [3] appears, read: 48 h, read-out: MIC C. albicans 73, 48 h.

Molecules are shown by their SMILES. In brackets after ≈: the same amount, converted by molar mass. Read-outs that look alike come from different tables or passages of the source. A value given as a limit tells only on which side of the number the result lay.

In the case of `CNc1ccc(C(=O)CC(O)CCC(C)C2OC(=O)CC(O)CC(=O)CC(O)CC(O)CC(O)CC(O)CC3(O)CC(O)C(C(=O)NCCCN(C)C)C(CC(OC4OC(C)C(O)C(NC(=O)CN(C)C)C4O)C=CC=CC=CC=CC=CC=CC=CC2C)O3)cc1` (stereo not drawn), the “Hemolytic con. total (THC)” value in the data set with rat erytrocytes came to 10.4 µg/mL. In the data set with rat erytrocytes (rat, 240 min), the “Hemolytic con. min. (MHC)” value came to 0.2 µg/mL. Also, the LD50 in data set [1] (ip, read-out: DL50 mice i.p.) amounted to 12.4 mg/kg. Moreover, the values for the MIC with C. albicans 73 (setting [2]) and in the data set with C. albicans 73 (setting [3]) were 0.015 µg/mL (≈ 0.0116 µM) and 0.03 µg/mL (≈ 0.0231 µM), respectively.
For `CNc1ccc(C(=O)CC(O)CCC(C)C2OC(=O)CC(O)CC(=O)CC(O)CC(O)CC(O)CC(O)CC3(O)CC(O)C(C(=O)NCCN(C)C)C(CC(OC4OC(C)C(O)C(NC(=O)CN(C)C)C4O)C=CC=CC=CC=CC=CC=CC=CC2C)O3)cc1` (stereo not drawn) [Partr. A, COCH2N(CH3)2, NHCH2 CH2N(CH3)2, N-dimethylaminoacetyl-partricin A 2-dimethylaminoethylamide], the “Hemolytic con. total (THC)” value with rat erytrocytes was over 18 µg/mL. For the same molecule, the “Hemolytic con. min. (MHC)” value in the data set on rat erytrocytes (rat, 240 min) amounted to 18 µg/mL. In addition, the LD50 turned out to be 158 mg/kg in data set [1] (ip, read-out: DL50 mice i.p.) and 58 mg/kg in data set [1] (iv, read-out: DL50 mice i.v.). Also, the MIC in the data set with C. albicans 73 (setting [2]) turned out to be 0.0075 µg/mL (≈ 0.00585 µM); in the data set on C. albicans 73 (setting [3]) it was 0.015 µg/mL (≈ 0.0117 µM).
On to `CNc1ccc(C(=O)CC(O)CCC(C)C2OC(=O)CC(O)CC(=O)CC(O)CC(O)CC(O)CC(O)CC3(O)CC(O)C(C(=O)N4CCN(CCO)CC4)C(CC(OC4OC(C)C(O)C(NC(=O)CN(C)C)C4O)C=CC=CC=CC=CC=CC=CC=CC2C)O3)cc1` (stereo not drawn) [Partr. A, COCH2N(CH3)2, drawing 30], for which the “Hemolytic con. total (THC)” value in the data set with rat erytrocytes is 0.7 µg/mL. Moreover, the “Hemolytic con. min. (MHC)” value in the data set with rat erytrocytes (rat, 240 min) was determined as 0.2 µg/mL. The MIC in the data set with C. albicans 73 (setting [2]) worked out at 0.0075 µg/mL (≈ 0.00566 µM); with C. albicans 73 (setting [3]) it was 0.0212 µg/mL (≈ 0.016 µM).
Take `CNc1ccc(C(=O)CC(O)CCC(C)C2OC(=O)CC(O)CC(=O)CC(O)CC(O)CC(O)CC(O)CC3(O)CC(O)C(C(=O)N4CCN(C)CC4)C(CC(OC4OC(C)C(O)C(NC(=O)CN(C)C)C4O)C=CC=CC=CC=CC=CC=CC=CC2C)O3)cc1` (stereo not drawn) [Partr. A, COCH2N(CH3)2, drawing 31]: the “Hemolytic con. min. (MHC)” value in the data set with rat erytrocytes (rat erytrocytes, 4 h at 37° C., minimum) is 0.2 µg/mL. For the same molecule, the “Hemolytic con. total (THC)” value in the data set on rat erytrocytes (rat erytrocytes, 4 h at 37° C., total) was 2 µg/mL. Moreover, the LD50 in data set [1] (ip, read-out: DL50 mice i.p.) turned out to be 3.6 mg/kg. Further, the MIC in the data set on C. albicans 73 (setting [2]) is 0.0075 µg/mL (≈ 0.00579 µM); in the data set with C. albicans 73 (setting [3]), 0.0212 µg/mL (≈ 0.0164 µM).
`CNc1ccc(C(=O)CC(O)CCC(C)C2OC(=O)CC(O)CC(=O)CC(O)CC(O)CC(O)CC(O)CC3(O)CC(O)C(C(=O)NCCc4ccccn4)C(CC(OC4OC(C)C(O)C(NC(=O)CN(C)C)C4O)C=CC=CC=CC=CC=CC=CC=CC2C)O3)cc1` (stereo not drawn) [Partr. A, COCH2N(CH3)2, drawing 50]: the “Hemolytic con. total (THC)” value in the data set on rat erytrocytes was over 18 µg/mL. Also, the “Hemolytic con. min. (MHC)” value in the data set on rat erytrocytes (rat, 240 min) came to 18 µg/mL. Further, the LD50 in data set [1] (ip, read-out: DL50 mice i.p.) was over 300 mg/kg; in data set [1] (iv, read-out: DL50 mice i.v.), 76.8 mg/kg. For the same molecule, the MIC with C. albicans 73 (setting [2]) was found to be 0.015 µg/mL (≈ 0.0114 µM); with C. albicans 73 (setting [3]) it was 0.0424 µg/mL (≈ 0.0322 µM).
In the case of `CNc1ccc(C(=O)CC(O)CCC(C)C2OC(=O)CC(O)CC(=O)CC(O)CC(O)CC(O)CC(O)CC3(O)CC(O)C(C(=O)OC)C(CC(OC4OC(C)C(O)C(NC(=O)CCN5CCCCC5)C4O)C=CC=CC=CC=CC=CC=CC=CC2C)O3)cc1` (stereo not drawn) [Partr. A, drawing 32, OCH3], the “Hemolytic con. total (THC)” value in the data set on rat erytrocytes turned out to be 18 µg/mL. Moreover, the “Hemolytic con. min. (MHC)” value in the data set on rat erytrocytes (rat, 240 min) worked out at 3.5 µg/mL. Also, the LD50 in data set [1] (ip, read-out: DL50 mice i.p.) was over 30 mg/kg. For the same molecule, the MIC was determined as 0.0075 µg/mL (≈ 0.00586 µM) with C. albicans 73 (setting [2]) and 0.0424 µg/mL (≈ 0.0331 µM) in the data set on C. albicans 73 (setting [3]).
Taken in the same sequence, the figures for `CNc1ccc(C(=O)CC(O)CCC(C)C2OC(=O)CC(O)CC(=O)CC(O)CC(O)CC(O)CC(O)CC3(O)CC(O)C(C(=O)NCCN(C)C)C(CC(OC4OC(C)C(O)C(NC(=O)CCN5CCCCC5)C4O)C=CC=CC=CC=CC=CC=CC=CC2C)O3)cc1` (stereo not drawn) [Partr. A, drawing 33, NHCH2 CH2N(CH3)2] were 18 µg/mL, 6 µg/mL, 43.6 mg/kg, 0.0075 µg/mL (≈ 0.00561 µM) and 0.03 µg/mL (≈ 0.0224 µM).
As for `CNc1ccc(C(=O)CC(O)CCC(C)C2OC(=O)CC(O)CC(=O)CC(O)CC(O)CC(O)CC(O)CC3(O)CC(O)C(C(=O)N4CCN(CCO)CC4)C(CC(OC4OC(C)C(O)C(NC(=O)CCN5CCCCC5)C4O)C=CC=CC=CC=CC=CC=CC=CC2C)O3)cc1` (stereo not drawn) [Partr. A, drawing 34, drawing 35], the “Hemolytic con. total (THC)” value in the data set on rat erytrocytes stood at 2 µg/mL. For the same molecule, the “Hemolytic con. min. (MHC)” value with rat erytrocytes (rat, 240 min) amounted to 0.2 µg/mL. The results for the MIC with C. albicans 73 (setting [2]) and in the data set on C. albicans 73 (setting [3]) were 0.0075 µg/mL (≈ 0.00544 µM) and 0.03 µg/mL (≈ 0.0218 µM), respectively.
Taken in the same sequence, the figures for `CNc1ccc(C(=O)CC(O)CCC(C)C2OC(=O)CC(O)CC(=O)CC(O)CC(O)CC(O)CC(O)CC3(O)CC(O)C(C(=O)N4CCN(C)CC4)C(CC(OC4OC(C)C(O)C(NC(=O)CCN5CCCCC5)C4O)C=CC=CC=CC=CC=CC=CC=CC2C)O3)cc1` (stereo not drawn) [Partr. A, drawing 36, drawing 37] were 3.5 µg/mL, 0.2 µg/mL, 0.0075 µg/mL (≈ 0.00556 µM) and 0.015 µg/mL (≈ 0.0111 µM).
With `CNc1ccc(C(=O)CC(O)CCC(C)C2OC(=O)CC(O)CC(=O)CC(O)CC(O)CC(O)CC(O)CC3(O)CC(O)C(C(=O)OC)C(CC(OC4OC(C)C(O)C(NC(=O)CN5CCN(C)CC5)C4O)C=CC=CC=CC=CC=CC=CC=CC2C)O3)cc1` (stereo not drawn) [Partr. A, drawing 38, OCH3], in the data set on rat erytrocytes, the “Hemolytic con. total (THC)” value stood at 18 µg/mL. The “Hemolytic con. min. (MHC)” value in the data set on rat erytrocytes (rat, 240 min) amounted to 0.7 µg/mL. In addition, in data set [1] (ip, read-out: DL50 mice i.p.), the LD50 was found to be 29.3 mg/kg. Further, the MIC with C. albicans 73 (setting [2]) came out at 0.015 µg/mL (≈ 0.0117 µM); with C. albicans 73 (setting [3]), 0.03 µg/mL (≈ 0.0234 µM).
Take `CNc1ccc(C(=O)CC(O)CCC(C)C2OC(=O)CC(O)CC(=O)CC(O)CC(O)CC(O)CC(O)CC3(O)CC(O)C(C(=O)NCCN(C)C)C(CC(OC4OC(C)C(O)C(NC(=O)CN5CCN(C)CC5)C4O)C=CC=CC=CC=CC=CC=CC=CC2C)O3)cc1` (stereo not drawn) [Partr. A, drawing 39, NHCH2 CH2N(CH3)2]: the “Hemolytic con. total (THC)” value in the data set with rat erytrocytes turned out to be 18 µg/mL. Also, the “Hemolytic con. min. (MHC)” value in the data set on rat erytrocytes (rat, 240 min) came to 2 µg/mL. The LD50 in data set [1] (ip, read-out: DL50 mice i.p.) is over 100 mg/kg. The values for the MIC in the data set on C. albicans 73 (setting [2]) and in the data set on C. albicans 73 (setting [3]) were 0.0106 µg/mL (≈ 0.00792 µM) and 0.03 µg/mL (≈ 0.0224 µM), respectively.
Take `CNc1ccc(C(=O)CC(O)CCC(C)C2OC(=O)CC(O)CC(=O)CC(O)CC(O)CC(O)CC(O)CC3(O)CC(O)C(C(=O)N4CCN(CCO)CC4)C(CC(OC4OC(C)C(O)C(NC(=O)CN5CCN(C)CC5)C4O)C=CC=CC=CC=CC=CC=CC=CC2C)O3)cc1` (stereo not drawn) [Partr. A, drawing 40, drawing 41]: the “Hemolytic con. total (THC)” value in the data set on rat erytrocytes was determined as 2 µg/mL. Moreover, in the data set on rat erytrocytes (rat, 240 min), the “Hemolytic con. min. (MHC)” value amounted to 0.2 µg/mL. The MIC in the data set on C. albicans 73 (setting [2]) was 0.015 µg/mL (≈ 0.0109 µM); in the data set on C. albicans 73 (setting [3]), 0.0212 µg/mL (≈ 0.0154 µM).
On to `CNc1ccc(C(=O)CC(O)CCC(C)C2OC(=O)CC(O)CC(=O)CC(O)CC(O)CC(O)CC(O)CC3(O)CC(O)C(C(=O)N4CCN(CCO)CC4)C(CC(OC4OC(C)C(O)C(NC(=O)CN5CCN(CCO)CC5)C4O)C=CC=CC=CC=CC=CC=CC=CC2C)O3)cc1` (stereo not drawn) [Partr. A, drawing 46, drawing 47], for which the “Hemolytic con. total (THC)” value in the data set on rat erytrocytes is 0.7 µg/mL. Besides, in the data set with rat erytrocytes (rat, 240 min), the “Hemolytic con. min. (MHC)” value was 0.2 µg/mL. The MIC was 0.0106 µg/mL (≈ 0.00752 µM) in the data set with C. albicans 73 (setting [2]) and 0.0212 µg/mL (≈ 0.015 µM) with C. albicans 73 (setting [3]).
Taken in the same sequence, the figures for `CNc1ccc(C(=O)CC(O)CCC(C)C2OC(=O)CC(O)CC(=O)CC(O)CC(O)CC(O)CC(O)CC3(O)CC(O)C(C(=O)N4CCN(C)CC4)C(CC(OC4OC(C)C(O)C(NC(=O)CN5CCN(CCO)CC5)C4O)C=CC=CC=CC=CC=CC=CC=CC2C)O3)cc1` (stereo not drawn) [Partr. A, drawing 48, drawing 49] were 0.7 µg/mL, 0.2 µg/mL, 0.0075 µg/mL (≈ 0.00544 µM) and 0.015 µg/mL (≈ 0.0109 µM).

One may read the MIC as the smallest concentration in the dilution series that meets the test's criterion for growth inhibition.
